# Earlier results as cited in paper PMC4646457 (PLoS ONE, 2015).
# Conditions: refractory advanced or metastatic breast cancer; ref ZM2006/00137/00 (EGF100151); cited from earlier work
smiles,measurement,value
CCCCCOC(=O)Nc1nc(=O)n([C@@H]2O[C@H](C)[C@@H](O)[C@H]2O)cc1F [capecitabine],median time to progression,18.6 weeks
